# Target: T1, NK1 receptor (Homo sapiens, UniProt P25103)
# T1 construct: endogenous in cells; host or cells: IM9 cells (intact)
# Assay: [3H] SP binding assay in IM9 Cell Line (intact cells)
# Procedure: Assessment of biological activity (antagonist activity on NK1 receptor) of compounds of this invention was performed by means of the following binding and functional assays:
# [3H] SP binding assay in IM9 Cell Line
# Binding assay was performed with intact cells as described by Goso et al (Eur.J.Pharmacol. 254,221,1994).
# T1 sequence (P25103 whole entry): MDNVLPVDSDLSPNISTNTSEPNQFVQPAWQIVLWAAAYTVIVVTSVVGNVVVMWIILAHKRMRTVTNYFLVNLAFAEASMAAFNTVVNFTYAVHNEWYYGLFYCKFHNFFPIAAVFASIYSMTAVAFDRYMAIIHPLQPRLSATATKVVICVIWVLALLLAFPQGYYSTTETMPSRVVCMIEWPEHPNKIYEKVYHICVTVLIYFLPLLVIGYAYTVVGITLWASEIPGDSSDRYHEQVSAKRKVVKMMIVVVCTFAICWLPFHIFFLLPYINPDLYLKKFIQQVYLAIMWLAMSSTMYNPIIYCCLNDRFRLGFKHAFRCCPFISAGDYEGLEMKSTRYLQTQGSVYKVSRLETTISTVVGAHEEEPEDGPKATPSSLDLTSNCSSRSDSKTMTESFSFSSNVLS
row,Structure (SMILES),pKi (Substance P antagonism Results)
1,O=C(NC1CCCCC1C(=O)N[C@@H](Cc1ccccc1)C(=O)OCc1ccccc1)c1c[nH]c2ccccc12 (stereo partly drawn) [1 (fast)],< 6
2,"O=C(Cc1ccccc1)N[C@H](Cc1ccccc1)NC(=O)C1CCCCC1NC(=O)c1c[nH]c2ccccc12 (stereo partly drawn) [2 (fast), 1-{N-(1(H)indol-3-yl-carbonyl) (1R,2S)-2-aminocyclohexanecarbonyl}-amino-1-(phenylacetyl)amino-2-phenyl-ethane]",< 6
3,"CN(C(=O)Cc1ccccc1)[C@H](Cc1ccc2ccccc2c1)NC(=O)C1CCCCC1NC(=O)c1c[nH]c2ccccc12 (stereo partly drawn) [3 (fast), 1-{N-(1(H)indol-3-yl-carbonyl) (1R,2S)-2-aminocyclohexanecarbonyl}-amino-1-(N-methyl-N-phenylacetyl)amino-2(2-naphthyl)ethane]",8.4
4,"CN(C(=O)Cc1ccccc1)[C@H](Cc1ccc2ccccc2c1)NC(=O)C1CCCCC1NC(=O)c1c[nH]c2ccccc12 (stereo partly drawn) [3 (slow), 1-{N-(1(H)indol-3-yl-carbonyl)(1S,2R)-2-aminocyclohexanecarbonyl}-amino-1-(N-methyl-N-phenylacetyl) amino-2(2-naphthyl)ethane]",< 5
5,O=C(NC1CCCCC1C(=O)N[C@H](COCc1cc(C(F)(F)F)cc(C(F)(F)F)c1)Cc1ccc2ccccc2c1)c1c[nH]c2ccccc12 (stereo partly drawn) [4 (fast)],< 5
6,"C[C@H](C(=O)N(C)[C@H](Cc1ccc2ccccc2c1)NC(=O)C1CCCCC1NC(=O)c1c[nH]c2ccccc12)c1ccccc1 (stereo partly drawn) [9 (fast), 1-{N-(1(H)indol-3-yl-carbonyl)(1R,2S)-2-aminocyclohexanecarbonyl}-amino-1-(N-methyl-N-((S)2-phenylpropionyl))amino-2-(2-naphthyl)ethane]",< 5
7,"C[C@@H](C(=O)N(C)[C@H](Cc1ccc2ccccc2c1)NC(=O)C1CCCCC1NC(=O)c1c[nH]c2ccccc12)c1ccccc1 (stereo partly drawn) [10 (fast), 1-{N-(1(H)indol-3-yl-carbonyl)(1R,2S)-2-aminocyclohexane-carbonyl}-amino-1-(N-methyl-N-((R)2-phenylpropionyl))Ammino-2-(2-naphthyl)ethane]",8.7
8,"CN(C(=O)Cc1ccc(Cl)cc1)[C@H](Cc1ccc2ccccc2c1)NC(=O)C1CCCCC1NC(=O)c1c[nH]c2ccccc12 (stereo partly drawn) [11 (fast), 1-{N-(1(H)indol-3-yl-carbonyl)(1R,2S)-2-aminocyclohexanecarbonyl}-amino-1-(N-methyl-N-4-chlorophenylacetyl)amino-2(2-naphthyl)ethane]",8.4
9,"Cc1ccc(CC(=O)N(C)[C@H](Cc2ccc3ccccc3c2)NC(=O)C2CCCCC2NC(=O)c2c[nH]c3ccccc23)cc1 (stereo partly drawn) [12 (fast), 1-{N-(1(H)indol-3-yl-carbonyl)(1R,2S)-2-aminocyclohexanecarbonyl}-amino-1-(N-methyl-N-4-methylphenylacetyl)amino-2(2-naphthyl)ethane]",8.7

# — patent US5760248A, “Tachykinin antagonists” (A.Menarini Industrie Farmaceutiche Riunite S.r.l., priority 1993, dated 1998)
